Reference: patent US20260240931A1 (priority 2022, published 2026)

Columns and labels:
[1] = system: human hair follicle dermal papilla cells (HDPs); conditions: 100 nM
Procedure: C57BL/6 mice (male, five weeks old) were purchased from Orient Bio. In addition, the mice were raised with sufficient water and food. The animal experiment of the present disclosure was performed in accordance with the guidelines ([…]-2021 Jul. 18-1) of the Institutional Animal Care and Use Committee (IACUC) at Sungkyunkwan University. The HDP cells were cultured in a HDP growth medium under conditions of 37° C. and 5% CO2.
Cell proliferation analysis was performed in the presence or absence of dihydrotestosterone ([…]). […] The optical density was detected at 540 nm.

[2] = system: testosterone-induced androgenetic alopecia model; assay: testosterone-induced androgenetic alopecia model: hair growth, skin color score, hair type frequency, hair thickness; type: in vivo, C57BL/6 mice; conditions: on 1 week
Procedure: A testosterone-induced androgenetic alopecia model was fabricated using C57BL/6 mice. C57BL/6 mice (n=6) were divided into the following five groups: Normal group, Vehicle control group: Experimental group treated with 40 μg/kg/week testosterone, Experimental group treated with 5 mg/day Cs-EE (Connarus semidecandrus Jack. extract according to the present disclosure), Experimental group treated with 10 mg/day Cs-EE, and Positive control group: Experimental group treated with 5 mg/kg/day finasteride. To confirm a hair growth promoting effect of Cs-EE, the dorsal part of each mouse was treated with hair removal cream and shaved using an electric clipper twice; seven and three days before the first testosterone treatment.
40 μg/kg of testosterone was dissolved in sesame oil and then subcutaneously injected once a week four times. Thereafter, in the case of the Cs-EE-treated experimental group, Cs-EE diluted with PBS and DMSO (ratio of 1:1) was applied to the back part of the mouse once every day for three weeks. As the positive control group, 5 mg of finasteride was treated instead of Cs-EE of the present disclosure. Two days after the testosterone injection, mice in all experimental groups were euthanized. Thereafter, the dorsal hairs were isolated from each experimental group to confirm hair type frequency and hair thickness. […]

SMILES | cytotoxicity to HDP cells (FIG. 9B) [1] | hair growth on shaved skin (FIG. 2) [2]
C[C@]12CCC(=O)C[C@@H]1CC[C@@H]1[C@@H]2CC[C@]2(C)[C@@H](O)CC[C@@H]12 [DHT, dihydrotestosterone] | cytotoxic | –
CC(C)(C)NC(=O)[C@H]1CC[C@H]2[C@@H]3CC[C@H]4NC(=O)C=C[C@]4(C)[C@H]3CC[C@]12C [finasteride] | – | remained hairless
